According to patent publication US10759810B2 (AO “TATKHIMFARMPREPARATY”, priority 2016, dated 2020):
In brackets after ≈: the same amount, converted by molar mass.

Experiments:
[1] = test system: microorganism strains under study; assay: Antibacterial activity (MIC), whole strain panel; format: cell-based; conditions: in words, from Table 1
Description: (§1) Measurement of antibacterial activity was carried out on the strains of Staphylococcus aureus ATCC 29213 (museum strain), Staphylococcus epidermidis (clinical isolate), Micrococcus luteus (clinical isolate), Bacillus subtilis 168 (museum strain), Escherichia coli ATCC 25922 (museum strain), Salmonella typhimurium TA100 (museum strain), Pseudomonas aeruginosa ATCC 27853 (museum strain). A comparative assessment of the spectrum of antibacterial action on reference strains and clinical isolates of gram-positive microorganisms was carried out using a micromethod for determining the minimum inhibitory concentration (MIC) using serial dilutions in Mueller-Hinton broth using 96-well sterile plates.
(§2) The first lowest concentration of the antibiotic (from a series of successive dilutions), where bacterial growth is not visually determined, is considered to be the minimum inhibitory concentration (MIC).
(§3) For the preparation of inoculum (infectious material used for artificial contamination), intended for the study of antibacterial activity, was used a pure daily culture of bacteria grown on a dense nutrient medium (agar LB medium). […] The inoculum was used for 15 minutes after preparation; the purity of the bacterial strains was monitored before each experiment. […]

[2] = test system: Salmonella typhimurium TA100 (museum strain); assay: MIC, serial dilutions in Mueller-Hinton broth; format: cell-based
Description: as §1, §2
(§4) For the preparation of inoculum (infectious material used for artificial contamination), intended for the study of antibacterial activity, was used a pure daily culture of bacteria grown on a dense nutrient medium (agar LB medium). In a sterile isotonic solution of sodium chloride, a suspension of microorganisms was prepared, adjusting the inoculum density to 0.5 according to the McFarland standard (1.5·10^8 CFU/ml). Then, the resulting inoculum was diluted to a concentration of 10^7 CFU/ml with LB-broth. The inoculum was used for 15 minutes after preparation; the purity of the bacterial strains was monitored before each experiment.
(§5) 100 μl of Muller-Hinton broth was added to the wells of each plate; the test base was introduced into the first well at a concentration of 128 μg/ml in a volume of 100 μl and its concentration was adjusted to 0.25 μg/ml by consecutive two-fold dilution. […] Each preparation in the experiment was titrated three times. […] In addition, the purity of nutrient media and solvents was monitored. The plates were incubated in a thermostat at […] for 24 hours.
(§6) The growth of cultures was assessed visually, comparing the growth of microorganisms in the presence of test compounds with the growth of culture without them.

[3] = test system: Pseudomonas aeruginosa ATCC 27853 (museum strain); assay: MIC, serial dilutions in Mueller-Hinton broth; format: cell-based
Description: as §1, §2, §4, §5, §6

[4] = test system: Staphylococcus epidermidis (clinical isolate); assay: MIC, serial dilutions in Mueller-Hinton broth; format: cell-based
Description: as §1, §2, §4, §5, §6

[5] = test system: Escherichia coli ATCC 25922 (museum strain); assay: MIC, serial dilutions in Mueller-Hinton broth; format: cell-based
Description: as §1, §2, §4, §5, §6

[6] = test system: Bacillus subtilis 168 (museum strain); assay: MIC, serial dilutions in Mueller-Hinton broth; format: cell-based
Description: as §1, §2, §4, §5, §6

[7] = test system: Micrococcus luteus (clinical isolate); assay: MIC, serial dilutions in Mueller-Hinton broth; format: cell-based
Description: as §1, §2, §4, §5, §6

[8] = test system: Staphylococcus aureus ATCC 29213 (museum strain); assay: MIC, serial dilutions in Mueller-Hinton broth; format: cell-based
Description: as §1, §2, §4, §5, §6

[9] = test system: gram-positive microorganisms; assay: Antibacterial activity (MIC), gram-positive strains; format: cell-based; conditions: in words, versus comparison drugs
Description: as §1, §2, §3

S. aureus MRSA 1130 = assay: MIC on clinical strain; format: cell-based, Staphylococcus aureus
Description: as §1, §2, §4, §5, §6

S. aureus MRSA 1131 = assay: MIC on clinical strain; format: cell-based, Staphylococcus aureus
Description: as §1, §2, §4, §5, §6

S. aureus MRSA 1173 = assay: MIC on clinical strain; format: cell-based, Staphylococcus aureus
Description: as §1, §2, §4, §5, §6

S. aureus MRSA 1163 = assay: MIC on clinical strain; format: cell-based, Staphylococcus aureus
Description: as §1, §2, §4, §5, §6

S. aureus MRSA 967 = assay: MIC on clinical strain; format: cell-based, Staphylococcus aureus
Description: as §1, §2, §4, §5, §6

S. aureus MRSA 981 = assay: MIC on clinical strain; format: cell-based, Staphylococcus aureus
Description: as §1, §2, §4, §5, §6

S. aureus MRSA 1143 = assay: MIC on clinical strain; format: cell-based, Staphylococcus aureus
Description: as §1, §2, §4, §5, §6

S. aureus MRSA 1168 = assay: MIC on clinical strain; format: cell-based, Staphylococcus aureus
Description: as §1, §2, §4, §5, §6

S. aureus MRSA 2020 = assay: MIC on clinical strain; format: cell-based, Staphylococcus aureus
Description: as §1, §2, §4, §5, §6

S. aureus MRSA 1065 = assay: MIC on clinical strain; format: cell-based, Staphylococcus aureus
Description: as §1, §2, §4, §5, §6

S. aureus MRSA 983 = assay: MIC on clinical strain; format: cell-based, Staphylococcus aureus
Description: as §1, §2, §4, §5, §6

S. aureus MRSA 1053 = assay: MIC on clinical strain; format: cell-based, Staphylococcus aureus
Description: as §1, §2, §4, §5, §6

[10] = test system: clinical freshly isolated strains of Staphylococcus aureus MRSA; assay: Antibacterial activity (MIC), clinical MRSA strains overall; format: cell-based; conditions: in words, in almost all cases
Description: as §1, §2, §3

[11] = test system: gram-negative bacterial strains; assay: Antibacterial activity (MIC), gram-negative strains; format: cell-based; conditions: in words
Description: as §1, §2, §3

ICR mice (CD-1) = assay: General acute toxicity, fixed-dose method, intragastric administration; format: in vivo, mouse; conditions: for Number of animals in the group/number of dead animals / LD10 / LD16 / LD50 with confidence interval / LD84: mouse
Description: The acute toxicity of compound I-2 was studied using the fixed-dose method in ICR mice (CD-1) (6-8 weeks, 20-25 g) of both sexes, 6 animals per group. The starting dose for testing compound I-2 was 5000 mg/kg. The intragastric (oral) administration of compound I-2 to animals (<2.5 ml/100 g) using a gastric probe was used.

[12] = inoculum 10^7 CFU/ml, gram-negative
[13] = inoculum 10^7 CFU/ml, gram-positive

Cc1ncc(CN2CCN(c3cc4c(cc3F)c(=O)c(C(=O)O)cn4C3CC3)CC2)c(CO)c1O [Compound I-2, 1-cyclopropyl-6-fluoro-7-(4-((5-hydroxy-4-hydroxymethyl-6-methylpyridine-3-yl)methyl)piperazinyl)-4-oxo-1,4-dihydroquinolin-3-carboxylic acid]
antibacterial activity against the microorganism strains under study [1]: most active
MIC, S. typhimurium [2, 12]: 2 µg/mL (≈ 4.14 µM)
MIC, P. aerugenosa [3, 12]: >64 µg/mL
MIC, S. epidermidis [4, 13]: 2 µg/mL (≈ 4.14 µM)
MIC, E. coli [5, 12]: 2 µg/mL (≈ 4.14 µM)
MIC, B. subtilis [6, 13]: <2 µg/mL
MIC, M. luteus [7, 13]: 4 µg/mL (≈ 8.29 µM)
MIC, S. aureus [8, 13]: 2 µg/mL (≈ 4.14 µM)
antibacterial action with respect to gram-positive microorganisms [9]: comparable with the comparison drugs
The value of the MIC, S. aureus MRSA 1130 (S. aureus MRSA 1130; inoculum 10^7 CFU/ml): 16 µg/mL
The value of the MIC, S. aureus MRSA 1131 (S. aureus MRSA 1131; inoculum 10^7 CFU/ml): 16 µg/mL
The value of the MIC, S. aureus MRSA 1173 (S. aureus MRSA 1173; inoculum 10^7 CFU/ml): 16 µg/mL
The value of the MIC, S. aureus MRSA 1163 (S. aureus MRSA 1163; inoculum 10^7 CFU/ml): 0.5 µg/mL
The value of the MIC, S. aureus MRSA 967 (S. aureus MRSA 967; inoculum 10^7 CFU/ml): 16 µg/mL
The value of the MIC, S. aureus MRSA 981 (S. aureus MRSA 981; inoculum 10^7 CFU/ml): 16 µg/mL
The value of the MIC, S. aureus MRSA 1143 (S. aureus MRSA 1143; inoculum 10^7 CFU/ml): 32 µg/mL
The value of the MIC, S. aureus MRSA 1168 (S. aureus MRSA 1168; inoculum 10^7 CFU/ml): 0.25 µg/mL
The value of the MIC, S. aureus MRSA 2020 (S. aureus MRSA 2020; inoculum 10^7 CFU/ml): 0.25 µg/mL
The value of the MIC, S. aureus MRSA 1065 (S. aureus MRSA 1065; inoculum 10^7 CFU/ml): 32 µg/mL
The value of the MIC, S. aureus MRSA 983 (S. aureus MRSA 983; inoculum 10^7 CFU/ml): 8 µg/mL
The value of the MIC, S. aureus MRSA 1053 (S. aureus MRSA 1053; inoculum 10^7 CFU/ml): 16 µg/mL
MIC on clinical MRSA strains compared with ceftriaxone [10]: superior to ceftriaxone
antibacterial activity in relation to gram-negative bacterial strains [11]: low antibacterial activity
changes during the autopsy of mice (ICR mice (CD-1); end of experiment, pathomorphological dissection): No changes were observed
hazard class (ICR mice (CD-1); from acute toxicity in mice): 4
behaviour after dosing (ICR mice (CD-1); mice of both sexes, 5000 mg/kg intragastric): slight inhibition of activity
death of animals (mortality) (ICR mice (CD-1); mice of both sexes, 5000 mg/kg intragastric, whole experiment): not observed
abnormalities during the observation period (ICR mice (CD-1); mice, 5000 mg/kg intragastric): no abnormalities were observed
time until animals began to take food and water (ICR mice (CD-1); mice, 5000 mg/kg intragastric): 1.5 to 2 h
time until behavior of animals returned to normal (ICR mice (CD-1); mice, 5000 mg/kg intragastric): 20 to 30 min
mean lethal dose (ICR mice (CD-1); mice, intragastric, up to 5000 mg/kg): not detected
Number of animals in the group/number of dead animals (ICR mice (CD-1); females, 5000 mg/kg intragastric): 6/0
LD10 (ICR mice (CD-1); females, intragastric): >5000 mg/kg
LD16 (ICR mice (CD-1); females, intragastric): >5000 mg/kg
LD50 with confidence interval (ICR mice (CD-1); females, intragastric): >5000 mg/kg
LD84 (ICR mice (CD-1); females, intragastric): >5000 mg/kg
Number of animals in the group/number of dead animals (ICR mice (CD-1); males, 5000 mg/kg intragastric): 6/0
LD10 (ICR mice (CD-1); males, intragastric): >5000 mg/kg
LD16 (ICR mice (CD-1); males, intragastric): >5000 mg/kg
LD50 with confidence interval (ICR mice (CD-1); males, intragastric): >5000 mg/kg
LD84 (ICR mice (CD-1); males, intragastric): >5000 mg/kg

CN[C@H](CC(C)C)C(=O)N[C@H]1C(=O)N[C@@H](CC(N)=O)C(=O)N[C@H]2C(=O)N[C@H]3C(=O)N[C@H](C(=O)N[C@H](C(=O)O)c4cc(O)cc(O)c4-c4cc3ccc4O)[C@H](O)c3ccc(c(Cl)c3)Oc3cc2cc(c3O[C@@H]2O[C@H](CO)[C@@H](O)[C@H](O)[C@H]2O[C@H]2C[C@](C)(N)[C@H](O)[C@H](C)O2)Oc2ccc(cc2Cl)[C@H]1O [Vancomycin, vancomycin]
MIC ([2]; Salmonella enterica, TYPHIMURIUM, read-out: MIC, S. typhimurium): 64 µg/mL (≈ 44.2 µM)
MIC ([3]; Pseudomonas aeruginosa, ATCC27853, read-out: MIC, P. aerugenosa): > 64 µg/mL
MIC ([4]; Staphylococcus epidermidis, read-out: MIC, S. epidermidis): 4 µg/mL (≈ 2.76 µM)
MIC ([5]; Escherichia coli, ATCC25922, read-out: MIC, E. coli): 64 µg/mL (≈ 44.2 µM)
MIC ([6]; Bacillus subtilis, read-out: MIC, B. subtilis): 64 µg/mL (≈ 44.2 µM)
MIC ([7]; Micrococcus luteus, read-out: MIC, M. luteus): 4 µg/mL (≈ 2.76 µM)
MIC ([8]; Staphylococcus aureus, ATCC29213, read-out: MIC, S. aureus): 4 µg/mL (≈ 2.76 µM)
MIC (S. aureus MRSA 1130; Staphylococcus aureus, MRSA, read-out: The value of the MIC, S. aureus MRSA 1130): 1 µg/mL (≈ 0.69 µM)
MIC (S. aureus MRSA 1131; Staphylococcus aureus, MRSA, read-out: The value of the MIC, S. aureus MRSA 1131): 0.5 µg/mL (≈ 0.345 µM)
MIC (S. aureus MRSA 1173; Staphylococcus aureus, MRSA, read-out: The value of the MIC, S. aureus MRSA 1173): 2 µg/mL (≈ 1.38 µM)
MIC (S. aureus MRSA 1163; Staphylococcus aureus, MRSA, read-out: The value of the MIC, S. aureus MRSA 1163): 2 µg/mL (≈ 1.38 µM)
MIC (S. aureus MRSA 967; Staphylococcus aureus, MRSA, read-out: The value of the MIC, S. aureus MRSA 967): 4 µg/mL (≈ 2.76 µM)
MIC (S. aureus MRSA 981; Staphylococcus aureus, MRSA, read-out: The value of the MIC, S. aureus MRSA 981): 2 µg/mL (≈ 1.38 µM)
MIC (S. aureus MRSA 1143; Staphylococcus aureus, MRSA, read-out: The value of the MIC, S. aureus MRSA 1143): 1 µg/mL (≈ 0.69 µM)
MIC (S. aureus MRSA 1168; Staphylococcus aureus, MRSA, read-out: The value of the MIC, S. aureus MRSA 1168): 0.5 µg/mL (≈ 0.345 µM)
MIC (S. aureus MRSA 2020; Staphylococcus aureus, MRSA, read-out: The value of the MIC, S. aureus MRSA 2020): 0.5 µg/mL (≈ 0.345 µM)
MIC (S. aureus MRSA 1065; Staphylococcus aureus, MRSA, read-out: The value of the MIC, S. aureus MRSA 1065): 1 µg/mL (≈ 0.69 µM)
MIC (S. aureus MRSA 983; Staphylococcus aureus, MRSA, read-out: The value of the MIC, S. aureus MRSA 983): 2 µg/mL (≈ 1.38 µM)
MIC (S. aureus MRSA 1053; Staphylococcus aureus, MRSA, read-out: The value of the MIC, S. aureus MRSA 1053): 2 µg/mL (≈ 1.38 µM)
